Values after ≈ are worked out from the molar mass of the structure shown.
What was measured:
[1] = In vitro inhibitory concentration required against Mur B enzyme was determined; parameters: species or system Staphylococcus aureus
[2] = tested on: Staphylococcus aureus; assay: Antibacterial activity against Staphylococcus aureus A9537; type: functional

With `CCCC[C@@H](C(=O)O)n1c(-c2cccc(Oc3ccc(C(C)(C)C)cc3)c2)cnc1O` the IC50 [1] was greater than 118 µM.
With `CCCC[C@@H](C(=O)O)N1C(=O)C(CC(=O)NCCc2ccccc2Cl)SC1c1cccc(Oc2ccc(C(C)(C)C)cc2)c1` (some centres not stated) the IC50 [1] was 12 µM.
Work on `C=CCn1cc(-c2cccc(Oc3ccc(C(C)(C)C)cc3)c2)n([C@@H](CCCC)C(=O)O)c1=O` yielded an MIC [2] of 4 µg/mL (≈ 8.65 µM) and an IC50 [1] of 40 µM.
`CCCC[C@@H](C(=O)O)n1c(-c2cccc(Oc3ccc(C(C)(C)C)cc3)c2)cn(C)c1=O` showed an IC50 [1] greater than 115 µM.
With `CCCC[C@@H](C(=O)O)n1c(-c2cccc(Oc3ccc(C(C)(C)C)cc3)c2)cn(Cc2ccccc2)c1=O` the MIC [2] was 2 µg/mL (≈ 3.9 µM) and the IC50 [1] was 16 µM.
Work on `CCCC[C@@H](C(=O)OC)n1c(-c2cccc(Oc3ccc(C(C)(C)C)cc3)c2)cn(CC(=O)O)c1=O` yielded an IC50 [1] greater than 101 µM.
Compound `CCCC[C@@H](C(=O)O)n1c(-c2cccc(Oc3ccc(C(C)(C)C)cc3)c2)cn(CC(=O)NCCc2ccccc2Cl)c1=O` has an MIC [2] of 4 µg/mL (≈ 6.47 µM) and an IC50 [1] of 25 µM.
Work on `CCCC[C@@H](C(=O)O)n1c(-c2cccc(Oc3ccc(C(C)(C)C)cc3)c2)cn(CC(=O)NCc2ccc(Cl)c(Cl)c2)c1=O` yielded an MIC [2] of 4 µg/mL (≈ 6.26 µM) and an IC50 [1] of 15 µM.

From ChEMBL document CHEMBL1136622, “Discovery of the first antibacterial small molecule inhibitors of MurB” (Bioorg Med Chem Lett, 2003)
